# From patent publication US20080085884A1, “Melanin Concentrating Hormone Receptor-1 Antagonist Pyridinones” (Pfizer Inc, priority 2006, published 2008)
# Molecular target: T1, human MCHR1 (Homo sapiens, UniProt Q99705)
# T1 construct: host or cells: CHO
# Test: Cyclic AMP assay (MCHR-1 functional antagonism)
# Assay type: cell-based
# Details: CHO cells stably expressing human MCHR1; cAMP accumulation with 25 uM forskolin and 0.2 nM MCH, 90 min; Ki from IC50 by Cheng-Prusoff; read-out: MCHR-1 functional Ki
# Experimental: CHO cell lines stably expressing the human MCHR1 (Euroscreen, Brussels, Belgium) were maintained in DMEM containing Glutamax (Invitrogen, Carlsbad, Calif.), 10% FBS, 400 ug/ml Geneticin.
# Cyclic AMP assays. CHO cells stably expressing the human MCHR1 receptors were collected and resuspended at a density of 4.0×10^6 cells/ml in F12 (Hams) media and seeded (20,000 cells per well) into 384-well, solid white Greiner assay plates. […] Cells were incubated at 37° C./5% CO2 for 90 minutes and cAMP accumulation subsequently determined by DiscoveRx Hithunter c-AMP II Assay kit (GE Healthcare, Buckinghamshire, UK) in accordance with manufactures instructions. Luminescence was measured on a LEADseaker imaging system (GE Healthcare, Buckinghamshire, UK). IC50 values were calculated from dose-response data fit using an in-house computer graphics and statistics program.
# T1 sequence (Q99705 whole entry): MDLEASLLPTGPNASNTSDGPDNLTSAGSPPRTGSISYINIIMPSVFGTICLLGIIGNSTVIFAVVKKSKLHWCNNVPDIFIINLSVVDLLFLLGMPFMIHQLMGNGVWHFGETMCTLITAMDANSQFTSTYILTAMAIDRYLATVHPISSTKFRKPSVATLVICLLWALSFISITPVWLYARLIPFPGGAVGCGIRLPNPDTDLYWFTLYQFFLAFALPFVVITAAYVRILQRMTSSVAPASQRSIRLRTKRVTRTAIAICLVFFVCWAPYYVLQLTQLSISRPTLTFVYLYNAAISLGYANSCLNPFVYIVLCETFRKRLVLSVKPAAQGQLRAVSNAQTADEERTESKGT
row,Structure (SMILES),Ki
1,CC(=O)N1C[C@@H]2CN(c3ccc(-n4ccc(OCc5ccccc5)cc4=O)cn3)C[C@@H]2C1 [Example 158],49.8 nM
2,CCC(=O)N1C[C@@H]2CN(c3ccc(-n4ccc(OCc5ccc(F)cc5)cc4=O)cn3)C[C@@H]2C1 [Example 171],38.1 nM
3,"CN(C(=O)OC(C)(C)C)[C@H]1CCN(c2ccc(-n3ccc(CCc4ccccc4)cc3=O)cn2)C1 [Example 32, tert-Butyl methyl{(3S)-1-[2-oxo-4-(2-phenylethyl)-2H-1,3′-bipyridin-6′-yl]pyrrolidin-3-yl}-carbamate]",18.3 nM
4,CN[C@H]1CCN(c2ccc(-n3ccc(OCc4ccccc4Cl)cc3=O)cn2)C1 [Example 151],6.04 nM
5,CC(=O)N[C@@H]1CCN(c2ccc(-n3ccc(OCc4ccc(Cl)cc4)cc3=O)cn2)C1 [Example 175],58.5 nM
6,O=c1cc(OCc2ccc(F)cc2)ccn1-c1ccc(N2CCC(O)CC2)nc1 [Example 115],100 nM
7,O=c1cc(OCc2ccccc2)ccn1-c1ccc(N2C[C@@H]3CN(C4CCC4)C[C@@H]3C2)nc1 [Example 210],4.56 nM
8,NC1CN(c2ccc(-n3ccc(OCc4ccc(F)cc4)cc3=O)cn2)C1 [Example 35],232 nM
9,CN[C@H]1CCN(c2ccc(-n3ccc(OCc4ccc(Cl)c(F)c4)cc3=O)cn2)C1 [Example 152],2.31 nM
10,O=c1cc(OCc2ccc(F)cc2)ccn1-c1ccc(N2CCCC2)nc1 [Example 116],26.9 nM
11,O=c1cc(OCc2ccc(F)cc2)ccn1-c1ccc(N2CCC2)nc1 [Example 90],96.7 nM
12,CN(C(=O)OC(C)(C)C)[C@H]1CCN(c2ccc(-n3ccc(OCc4ccccc4)cc3=O)nn2)C1 [Example 156],230 nM
13,"CC(C)(C)OC(=O)N1C[C@@H]2CN(c3ccc(-n4ccc(OCc5ccccc5)cc4=O)cn3)C[C@@H]2C1 [Example 4, tert-Butyl (3aR,6aS)-5-[4-(benzyloxy)-2-oxo-2H-1,3′-bipyridin-6′-yl]hexahydropyrrolo[3,4-c]pyrrole-2(1H)-carboxylate]",1950 nM
14,O=c1cc(OCc2ccc(F)c(Cl)c2)ccn1-c1ccc(N2CC[C@@H](O)C2)nc1 [Example 206],250 nM
15,O=c1cc(OCc2ccccc2Cl)ccn1-c1ccc(N2CC[C@@H](O)C2)nc1 [Example 145],98.5 nM
16,O=c1cc(OCc2cccc(Cl)c2)ccn1-c1ccc(N2CC[C@@H](O)C2)nc1 [Example 144],69.9 nM

row,Structure (SMILES),Ki
1,O=c1cc(COc2ccc(F)cc2)ccn1-c1ccc(N2CC[C@@H](O)C2)nc1 [Example 93],1090 nM
2,CC(=O)N1C[C@@H]2CN(c3ccc(-n4ccc(OCc5ccc(F)cc5)cc4=O)cn3)C[C@@H]2C1 [Example 164],66.8 nM
3,O=C1CCCN1[C@H]1CCN(c2ccc(-n3ccc(OCc4ccccc4)cc3=O)cn2)C1 [Example 27],71.4 nM
4,"O=c1cc(OCc2ccc(Cl)cc2)ccn1-c1ccc(N2CC[C@H](O)C2)nc1 [Example 29, 4-[(4-Chlorobenzyl)oxy]-6′-[(3S)-3-hydroxypyrrolidin-1-yl]-2H-1,3′-bipyridin-2-one]",23.7 nM
5,COC(=O)NC1CN(c2ccc(-n3ccc(OCc4ccc(F)cc4)cc3=O)cn2)C1 [Example 193],196 nM
6,CN[C@H]1CCN(c2ccc(-n3ccc(OCc4ccc(F)c(F)c4)cc3=O)cn2)C1 [Example 150],3.47 nM
7,"CCN1C[C@@H]2CN(c3ccc(-n4ccc(OCc5ccccc5)cc4=O)cn3)C[C@@H]2C1 [Example 26, 4-(Benzyloxy)-6′-[(3aR,6aS)-5-ethylhexahydropyrrolo[3,4-c]pyrrol-2(1H)-yl]-2H-1,3′-bipyridin-2-one]",6.64 nM
8,CN(C(=O)OC(C)(C)C)[C@@H]1CCN(c2ccc(-n3ccc(OCc4ccc(Cl)cc4)cc3=O)cn2)C1 [Example 197],7.7 nM
9,CN[C@H]1CCN(c2ccc(-n3ccc(OCc4ccc(Cl)cc4F)cc3=O)cn2)C1 [Example 153],2.02 nM
10,O=c1cc(OCc2ccc(F)cc2)ccn1-c1ccc(N2C[C@@H]3CN(C4CCC4)C[C@@H]3C2)nc1 [Example 208],2.72 nM
11,N[C@H]1CCN(c2ccc(-n3ccc(OCc4ccc(F)cc4)cc3=O)cn2)C1 [Example 118],11.5 nM
12,CC(=O)N1CCN(c2ccc(-n3ccc(OCc4ccc(F)cc4)cc3=O)cn2)CC1 [Example 83],851 nM
13,O=c1cc(OCc2ccc(Cl)cc2)ccn1-c1ccc(N2C[C@@H](O)[C@@H](O)C2)nc1 [Example 101],25.8 nM
14,O=c1cc(OCc2ccccc2)ccn1-c1ccc(N2CC3CCC(C2)N3)nc1 [Example 220],513 nM
15,O=c1cc(OCc2ccc(Cl)cc2)ccn1-c1ccc(N2CCC[C@@H](O)C2)nc1 [Example 106],65.8 nM
16,O=c1cc(OCc2ccc(F)cc2)ccn1-c1ccc(N2CC(N3CCC3)C2)nc1 [Example 96],195 nM

# Other lines, results leading:
row,Ki,Structure (SMILES)
1,3.69 nM,CN(C)[C@@H]1CCN(c2ccc(-n3ccc(OCc4ccccc4)cc3=O)cn2)C1 [Example 56]
2,155 nM,O=c1cc(OCc2ccccc2)ccn1-c1ccc(N2CC(N3CCCC3)C2)nc1 [Example 78]
3,15.2 nM,"CC(=O)N(C)[C@H]1CCN(c2ccc(-n3ccc(OCc4ccccc4)cc3=O)cn2)C1 [Example 20, N-{(3S)-1-[4-(Benzyloxy)-2-oxo-2H-1,3′-bipyridin-6′-yl]pyrrolidin-3-yl}-N-methylacetamide]"
4,18.7 nM,O=c1cc(OCc2ccccc2)ccn1-c1ccc(N2CCC(N3CCC3)C2)nc1 (centres unmarked) [Example 61]
5,705 nM,COC(=O)N1CCN(c2ccc(-n3ccc(OCc4ccccc4)cc3=O)cn2)CC1 [Example 48]
6,11 nM,N[C@@H]1[C@H]2CN(c3ccc(-n4ccc(OCc5ccccc5)cc4=O)cn3)C[C@@H]12 [Example 217]
7,68.3 nM,O=c1cc(OCc2ccccc2)ccn1-c1ccc(N2CCC2)nc1 [Example 59]
8,69.6 nM,"CN(C)C(=O)C1CCN(c2ccc(-n3ccc(OCc4ccccc4)cc3=O)cn2)C1 (single isomer, unassigned) [Example 25b, 1-[4-(Benzyloxy)-2-oxo-2H-1,3′-bipyridin-6′-yl]-N,N-dimethylpyrrolidine-3-carboxamide]"
9,33.3 nM,CCN(C(C)=O)[C@H]1CCN(c2ccc(-n3ccc(OCc4ccccc4)cc3=O)cn2)C1 [Example 161]
10,1210 nM,CC(C)C(=O)N1CCN(c2ccc(-n3ccc(OCc4ccccc4)cc3=O)cn2)CC1 [Example 166]
11,270 nM,CC(C)C1(O)CCN(c2ccc(-n3ccc(OCc4ccccc4)cc3=O)cn2)C1 (centres unmarked) [Example 45]
12,2470 nM,"O=C1CCN(c2ccc(-n3ccc(OCc4ccccc4)cc3=O)cn2)C1 [Example 30, 4-(Benzyloxy)-6′-(3-oxopyrrolidin-1-yl)-2H-1,3′-bipyridin-2-one]"
13,161 nM,CNC1CN(c2ccc(-n3ccc(OCc4ccccc4)cc3=O)cn2)C1 [Example 111]
14,3.66 nM,"N[C@H]1CCN(c2ccc(-n3ccc(OCc4ccccc4)cc3=O)cn2)C1 [Example 55, 6′-[(3S)-3-aminopyrrolidin-1-yl]-4-(benzyloxy)-2H-1,3′-bipyridin-2-one]"
15,126 nM,CC(C)C1CN(c2ccc(-n3ccc(OCc4ccccc4)cc3=O)cn2)CCN1 (centres unmarked) [Example 221]
16,38.1 nM,"CC1(N)CCN(c2ccc(-n3ccc(OCc4ccccc4)cc3=O)cn2)C1 (single isomer, unassigned) [Example 17b, 6′-(3-Amino-3-methylpyrrolidin-1-yl)-4-(benzyloxy)-2H-1,3′-bipyridin-2-one]"
17,71.1 nM,"CN(C)C(=O)C1CCN(c2ccc(-n3ccc(OCc4ccccc4)cc3=O)cn2)C1 (single isomer, unassigned) [Example 25a, 1-[4-(Benzyloxy)-2-oxo-2H-1,3′-bipyridin-6′-yl]-N,N-dimethylpyrrolidine-3-carboxamide]"
18,517 nM,C[C@@H]1CN(c2ccc(-n3ccc(OCc4ccccc4)cc3=O)cn2)[C@@H](C)CN1 [Example 73]
19,24.1 nM,COC(=O)N(C)[C@@H]1CCN(c2ccc(-n3ccc(OCc4ccccc4)cc3=O)cn2)C1 [Example 187]
20,19.4 nM,"CN[C@@H]1CCN(c2ccc(-n3ccc(OCc4ccccc4)cc3=O)nc2)C1 [Example 33, 4-(Benzyloxy)-5′-[(3R)-3-(methylamino)pyrrolidin-1-yl]-2H-1,2′-bipyridin-2-one]"
21,416 nM,O=c1cc(OCc2ccccc2)ccn1-c1ccc(N2CC(N3CCC3)C2)nc1 [Example 79]
22,17.6 nM,COCC1CCCN(c2ccc(-n3ccc(OCc4ccccc4)cc3=O)cn2)CC1 (centres unmarked) [Example 233]
23,57.8 nM,COC1CCN(c2ccc(-n3ccc(OCc4ccccc4)cc3=O)cn2)CC1 [Example 47]
24,10.9 nM,COC(=O)N(C)[C@H]1CCN(c2ccc(-n3ccc(OCc4ccccc4)cc3=O)cn2)C1 [Example 181]
25,19.3 nM,CCN(C(=O)OC)[C@H]1CCN(c2ccc(-n3ccc(OCc4ccccc4)cc3=O)cn2)C1 [Example 177]
26,89.9 nM,"O=c1cc(OCc2ccccc2)ccn1-c1ccc(N2CCNCC2)nc1 [Example 2, 4-(Benzyloxy)-6′-piperazin-1-yl-2H-1,3′-bipyridin-2-one]"
27,626 nM,CC(C)CC1CN(c2ccc(-n3ccc(OCc4ccccc4)cc3=O)cn2)CCN1 (centres unmarked) [Example 71]
28,54.3 nM,"O=c1cc(OCc2ccccc2)ccn1-c1ccc(N2CCCC2)nc1 [Example 34, 4-(benzyloxy)-6′-pyrrolidin-1-yl-2H-1,3′-bipyridin-2-one]"
29,102 nM,CC(C)C1CN(c2ccc(-n3ccc(OCc4ccccc4)cc3=O)cn2)CCN1 (centres unmarked) [Example 70]
30,749 nM,CCC(=O)N1CCN(c2ccc(-n3ccc(OCc4ccccc4)cc3=O)cn2)CC1 [Example 167]
